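Following 48 hours of exposure in 96-well plates, responses at five concentrations were used to interpolate endpoints linearly. TGI: concentration producing complete growth inhibition.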
Experiments:
Assay in all cases: NCI tumour cell line growth inhibition, 48 h
[1] = test system: RPMI-8226 leukemia
[2] = test system: K-562 leukemia
[3] = test system: SNB-19 CNS
[4] = test system: EKVX NSCLC
[5] = test system: COLO 205 colon
[6] = test system: MCF7 breast
[7] = test system: NCI-H23 lung
[8] = test system: A498 renal
[9] = test system: UO-31 renal
[10] = test system: MOLT-4 leukemia
[11] = test system: MDA-MB-231 breast
[12] = test system: U251 CNS
[13] = test system: OVCAR-4 ovarian
[14] = test system: 786-0 renal
[15] = test system: HS 578T breast
[16] = test system: BT-549 breast
[17] = test system: OVCAR-5 ovarian
[18] = test system: LOX IMVI melanoma
[19] = test system: SF-268 CNS

| SMILES | TGI [1] | TGI [2] | TGI [3] | TGI [4] | TGI [5] | TGI [6] | TGI [7] | TGI [8] | TGI [9] | TGI [10] | TGI [11] | TGI [12] | TGI [13] | TGI [14] | TGI [15] | TGI [16] | TGI [17] | TGI [18] | TGI [19] |
| --- | --- | --- | --- | --- | --- | --- | --- | --- | --- | --- | --- | --- | --- | --- | --- | --- | --- | --- | --- |
| CC(C)NC(NC(C)C)=C(S(=O)(=O)C(F)(F)C(F)(F)C(F)(F)C(F)(F)F)S(=O)(=O)C(F)(F)C(F)(F)C(F)(F)C(F)(F)F | > 100 µM | > 100 µM | > 100 µM | > 100 µM | > 100 µM | > 100 µM | > 100 µM | > 100 µM | > 100 µM | > 100 µM | > 100 µM | > 100 µM | > 100 µM | > 100 µM | > 100 µM | > 100 µM | > 100 µM | > 100 µM | > 100 µM |
| O=C1CCC2(c3ccccc3)Nc3ccncc3N12 (stereo not given) | – | > 10 µM | > 10 µM | > 10 µM | – | > 10 µM | > 10 µM | – | > 10 µM | > 10 µM | > 10 µM | > 10 µM | > 10 µM | > 10 µM | > 10 µM | > 10 µM | > 10 µM | > 10 µM | > 10 µM |
| COc1ccc2c(c1)-c1nc(=S)n(CCCN(C)C)c3ccc([N+](=O)[O-])c(c13)N2 | 4.31 µM | 3.04 µM | 11 µM | 14.5 µM | 17.6 µM | 3.01 µM | 4.31 µM | 22.2 µM | 1.82 µM | 2.15 µM | 2.1 µM | 17.7 µM | 2.52 µM | 1.36 µM | 5.6 µM | 21.7 µM | 3.62 µM | 4.57 µM | 21.7 µM |
| Cc1ccc(S(=O)(=O)c2ccsc2NC(=O)C(F)(F)F)cc1 | 31 µM | – | > 100 µM | > 100 µM | 24.5 µM | > 100 µM | > 100 µM | > 100 µM | 96.1 µM | 45.9 µM | 56.2 µM | > 100 µM | > 100 µM | > 100 µM | > 100 µM | > 100 µM | > 100 µM | > 100 µM | > 100 µM |
| COc1cc2ncnc(Nc3cccc(Cl)c3)c2cc1OC | 42.3 µM | 47.3 µM | 82.1 µM | 15.7 µM | > 70.5 µM | 72.2 µM | 44.5 µM | 9.84 µM | 44 µM | 54.2 µM | 54 µM | 79.4 µM | 75.8 µM | 44.1 µM | 25 µM | 13.7 µM | 47.2 µM | 43 µM | 53.9 µM |
| Nc1nc(I)nc2c1ncn2C1OC(COS(N)(=O)=O)C(O)C1O (stereo not given) | 0.172 µM | 0.37 µM | < 0.013 µM | 0.0573 µM | 0.0167 µM | 0.207 µM | 0.0324 µM | < 0.01 µM | 0.0653 µM | 0.0416 µM | < 0.0238 µM | 0.0243 µM | < 0.0158 µM | 0.0297 µM | 0.0273 µM | 0.103 µM | 0.0189 µM | 0.0251 µM | 0.018 µM |
